# Reference: patent US20130337461A1, “METHOD FOR DIAGNOSIS, MONITORING THE EFFICACY OF A THERAPY AND FOR DEVELOPMENT OF TREATMENT FOR MULTIPLE SCLEROSIS” (priority 2010, published 2013)
# Experiments:
# [1] = system: M03-13 cells; assay: Differentiation of M03-13 cells with low doses of hydrogen peroxide: differentiation markers; type: cell-based, human
# [2] = system: M03-13 cells; assay: Differentiation of M03-13 cells with PMA: expression or localization of differentiation markers
# [3] = 100 nM PMA 30 min, cells pre-incubated 16 h in 0.2% FBS, Western blotting, vs not differentiated
# [4] = 100 nM PMA 24 h, absence of serum, Western blotting
# [5] = 200 μM H2O2 for 4 days in complete medium, Western blotting
compound,measurement,setting,value
"CC(=O)N[C@@H](CS)C(=O)O [NAC, N-Acetyl-Cysteine]","reversal of hydrogen peroxide effects on α-SMA, P-CREB levels","[1]; 200 μM H2O2 in presence of NAC 10 mM or AEBSF 40 μM, Western blotting",reverted hydrogen peroxide effects
"CCCCCCCCCCCCCC(=O)O[C@@H]1[C@@H](C)[C@@]2(O)[C@@H](C=C(CO)C[C@]3(O)C(=O)C(C)=C[C@@H]23)[C@@H]2C(C)(C)[C@]12OC(C)=O [PMA, 12-O-Tetradecanoylphorbol-13-acetate]",P-CREB levels,[2]; [3],significantly increases
same,P-ERK1/2 levels,[2]; [3],significantly increases
same,Olig-2 levels,[2]; [4],increased
same,P-CREB levels,[2]; [4],increased
same,P-ERK1/2 levels,[2]; [4],increased
same,α-SMA levels,[2]; [4],decrease
same,translocation of olig-2 from nucleus to cytosol,"[2]; 100 nM PMA 24 h, medium without serum, confocal microscopy",a cytoplasmic staining of the cells became evident
same,α-SMA signal,"[2]; 100 nM PMA serum-free medium, 1 and 4 days, confocal microscopy, vs not differentiated cells",decreased
same,Olig-2 fluorescent signal,"[2]; 100 nM PMA serum-free medium, 1 day and 4 days, confocal microscopy, vs not differentiated cells",progressively increased
same,MBP signal,"[2]; 100 nM PMA serum-free medium, 1 day or 4 days, confocal microscopy, vs not differentiated cells",increased
same,mAchR M1 level,"[2]; 100 nM PMA, absence of serum, 4 days, Western blotting",increased
same,cytosolic MBP levels,"[2]; 100 nM PMA, absence of serum, 4 days, cell fractionation and Western blotting",decreases
same,MBP protein levels,"[2]; 100 nM PMA, medium without serum, 24 h and 4 days, flow cytometric analysis",time-dependent increase
hydrogen peroxide [H2O2],total MBP protein levels,"[1]; 200 μM H2O2 4d, flow cytometric analysis",increases
same,translocation of olig-2 from nucleus to cytosol,"[1]; 200 μM H2O2, 30 min and 24 h, confocal microscopy",a cytoplasmic staining of the cells became evident already after 30 min
same,α-SMA signal,"[1]; 200 μM H2O2 complete medium, 1 and 4 days, confocal microscopy, vs not differentiated cells",decreased
same,Olig-2 fluorescent signal,"[1]; 200 μM H2O2 complete medium, 1 day and 4 days, confocal microscopy, vs not differentiated cells",progressively increased
same,P-CREB levels,[1]; [5],induces
same,P-ERK1/2 levels,[1]; [5],not affected
same,α-SMA levels,[1]; [5],decreases
same,cytosolic MBP levels,"[1]; 200 μM hydrogen peroxide 4 days, complete medium, cell fractionation and Western blotting",decreases
same,differentiation of oligodendrocyte precursors to differentiated cells,"[1]; low doses of hydrogen peroxide, overall conclusion",induces the differentiation
